# Values of other authors in patent US20060252738A1, “Method for preparing and using water-based steroid pheromone compositions” (Phero Tech Inc., priority 2005, published 2006).
# Columns and labels:
# sows = details: pigs; Reed et al. (1974)
# [1] = test system: sows that have reached oestrus; details: for function in place of boar saliva: pressurized aerosol sprays in organic solvents, sows that have reached oestrus, Melrose et al. 1971
Compound,bioactivity as diagnostic tool relative to androstenone (sows),function in place of boar saliva [1],effective dose ([1]; established by Melrose et al. (1972))
C[C@]12CC[C@H](O)C[C@@H]1CC[C@@H]1[C@@H]2CC[C@]2(C)C=CC[C@@H]12 [3β-hydroxy-5α-androst-16-ene],less effective,–,–
C[C@@]12CCC[C@H]1[C@@H]1CC[C@H]3CC(=O)CC[C@]3(C)[C@H]1CC2 [5α-androstan-3-one],less effective,–,–
C[C@]12CCC(=O)C[C@H]1CC[C@@H]1[C@@H]2CC[C@]2(C)C=CC[C@@H]12 [5β-androst-16-en-3-one],comparable,–,–
"C[C@]12CC[C@@H](O)C[C@@H]1CC[C@@H]1[C@@H]2CC[C@]2(C)C=CC[C@@H]12 [androstenol, 3α-hydroxy-5a-androst-16-ene]",–,inducing an immobile mating stance,–
"C[C@]12CCC(=O)C[C@@H]1CC[C@@H]1[C@@H]2CC[C@]2(C)C=CC[C@@H]12 [androstenone, 5α-androst-16-en-3-one]",–,inducing an immobile mating stance,2 to 20 µg
"C[C@@]12C=CC[C@H]1[C@@H]1CCC3=CC(=O)CC[C@]3(C)[C@H]1CC2 [andrsost-4,16-dien-3-one]",comparable,–,–
